Test results as given in patent US20090118372A1, “Inhibitors Of Biotin Protein Ligase” (Adelaide Research & Innovation Pty Ltd., priority 2004, published 2009).

Experiments:
[1] = target: T1, Saccharomyces cerevisiae BPL (Saccharomyces cerevisiae, UniProt P48445); assay: In vitro biotinylation assay of S. cerevisiae BPL; assay type: biochemical
T1 sequence (P48445 1-690): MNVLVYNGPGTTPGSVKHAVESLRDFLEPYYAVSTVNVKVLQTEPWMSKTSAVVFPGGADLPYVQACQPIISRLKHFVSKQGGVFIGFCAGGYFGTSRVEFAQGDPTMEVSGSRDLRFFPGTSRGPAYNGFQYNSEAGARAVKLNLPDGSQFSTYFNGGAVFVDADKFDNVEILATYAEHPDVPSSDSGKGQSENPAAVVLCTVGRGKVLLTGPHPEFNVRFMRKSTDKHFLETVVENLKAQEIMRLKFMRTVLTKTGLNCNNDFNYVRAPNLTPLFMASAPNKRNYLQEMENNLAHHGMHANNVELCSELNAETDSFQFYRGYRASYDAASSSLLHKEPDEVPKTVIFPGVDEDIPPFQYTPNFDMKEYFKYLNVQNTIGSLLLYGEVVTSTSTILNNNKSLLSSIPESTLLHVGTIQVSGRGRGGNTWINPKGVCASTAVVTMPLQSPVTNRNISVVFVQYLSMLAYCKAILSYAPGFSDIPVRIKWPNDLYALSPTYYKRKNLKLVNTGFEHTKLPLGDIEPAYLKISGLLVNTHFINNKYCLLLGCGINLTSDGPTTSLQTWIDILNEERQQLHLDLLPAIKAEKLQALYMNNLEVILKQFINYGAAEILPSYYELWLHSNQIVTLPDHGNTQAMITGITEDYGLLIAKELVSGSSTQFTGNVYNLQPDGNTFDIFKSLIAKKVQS
Description: (§1) One hundred ng of biotin domain was coated onto each well of Griener Lumitrac 600 White 96-well plates (Stennick Scientific) with >95% of the peptide binding. Coating was performed overnight at 4° C. in 100 uL of Tris Buffered saline (TBS, pH 7.5). The sample was removed and wells blocked in 150 ul of a 1% BSA solution in TBS for 1 hr at 37° C. The blocking buffer was removed and wells washed five times in TBS buffer containing 0.1% Tween-20. Into each well 85 ul of the BPL reaction mix was added. The reaction for both C. albicans and human BPL are performed in 50 mM Tris-HCl pH 8.0, 100 uM ATP, 5.5 mM MgCl2, 0.1 mg/ml BSA, 10 uM biotin, […].
(§2) Ten ul of either buffer alone or buffer containing inhibitor was added to the reaction mix and pre-equilibrated at 37° C. for 5 minutes. […] The quantitative analysis of biotinylated protein formed in the reaction and coupled onto the well surface was determined using time resolved fluorescence. […] Fifty ul of DELFIA Enhancement solution (Perkin Elmer) was added and incubated for ten minutes at room temperature before quantitation. Quantitation was performed using a FLUOstar Galaxy plate reader (BMG Labtechnologies).
(§3) The activity of BPL from Escherichia coli, Staphylococcus aureus, Saccharomyces cerevisiae and Homo sapiens was measured using an in vitro biotinylation assay in the presence of increasing concentrations of Compounds 2 to 5.

[2] = target: T2, Staphylococcus aureus BPL (UniProt A0A3A5LBF0); assay: In vitro biotinylation assay of S. aureus BPL; assay type: biochemical
T2 sequence (A0A3A5LBF0 1-323): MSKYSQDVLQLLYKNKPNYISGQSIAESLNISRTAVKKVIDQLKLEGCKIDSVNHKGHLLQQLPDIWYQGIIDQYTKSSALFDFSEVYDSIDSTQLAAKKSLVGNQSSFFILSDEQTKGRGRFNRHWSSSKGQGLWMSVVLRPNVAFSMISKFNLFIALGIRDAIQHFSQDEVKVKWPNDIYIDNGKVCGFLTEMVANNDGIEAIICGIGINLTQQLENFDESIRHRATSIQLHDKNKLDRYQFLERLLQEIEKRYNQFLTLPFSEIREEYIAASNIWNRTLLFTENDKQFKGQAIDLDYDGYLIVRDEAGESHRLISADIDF
Description: (§4) Purified hPC-108 was analysed in an in vitro biotinylation assay using recombinant human BPL as follows: BPL activity was assayed by measuring the incorporation of [^3H]biotin into biotin domain. The reactions contained 50 mM Tris-HCl, pH 8.0, 3 mM ATP, 5.5 mM MgCl2, 50 mM KCl, 5 uM biotin, 5 pmol [^3H]biotin (specific activity 35-44 Ci/mmol) 0.1 mM dithiothreitol, 0.1 mg/ml BSA and varying concentrations of hPC-108. The reaction was initiated by addition of purified […] BPL to a final concentration of 13 nM and incubated at 37° C. for up to 30 minutes when aliquots of the reaction were spotted onto biotin- and trichloroacetic acid-treated filters. After air-drying, the filters were washed twice in 10% ice cold trichloroacetic acid and once in ethanol, dried and the acid insoluble radioactivity measured. Values for Km and Vmax were determined by fitting a plot of substrate concentration against rate to the Michaelis-Menten equation using GraphPad Prism for MacIntosh (GraphPad Software Inc, San Diego, Calif.).
as §3

[3] = target: T3, human BPL (Homo sapiens, UniProt P50747); assay: In vitro biotinylation assay of human BPL (Example 9); assay type: biochemical
T3 construct: Vector pARA(hBPL-His6) was produced by cloning the full-length gene into Nco1/Hind111 treated pARA13; initiator Met (NcoI site) before Ala80 (N); made in house; host or cells: E. coli BL21(DE3)pLys, pET-16b vector
T3 sequence (P50747 80-726 limits assumed): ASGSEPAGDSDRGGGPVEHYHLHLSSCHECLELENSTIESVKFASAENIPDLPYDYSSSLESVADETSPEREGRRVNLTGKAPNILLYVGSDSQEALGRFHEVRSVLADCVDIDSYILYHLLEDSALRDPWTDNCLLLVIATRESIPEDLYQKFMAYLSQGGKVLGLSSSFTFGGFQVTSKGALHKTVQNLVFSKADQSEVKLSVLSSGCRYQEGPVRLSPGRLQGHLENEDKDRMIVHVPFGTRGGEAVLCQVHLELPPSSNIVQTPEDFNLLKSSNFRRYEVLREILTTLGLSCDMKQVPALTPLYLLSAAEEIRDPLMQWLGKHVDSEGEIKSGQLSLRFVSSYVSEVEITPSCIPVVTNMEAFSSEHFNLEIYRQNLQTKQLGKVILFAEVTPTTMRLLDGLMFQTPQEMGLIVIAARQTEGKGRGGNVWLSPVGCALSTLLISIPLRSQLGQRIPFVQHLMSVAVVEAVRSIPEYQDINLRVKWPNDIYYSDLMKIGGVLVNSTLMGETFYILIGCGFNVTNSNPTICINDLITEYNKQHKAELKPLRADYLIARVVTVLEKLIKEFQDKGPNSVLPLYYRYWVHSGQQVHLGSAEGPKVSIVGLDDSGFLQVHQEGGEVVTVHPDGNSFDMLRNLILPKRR
Description: as §1
as §2, with “Labtechnologies). […]” for “Labtechnologies).”
as §3

[4] = target: T4, Escherichia coli BPL (Escherichia coli, UniProt P06709); assay: In vitro biotinylation assay of E. coli BPL; assay type: biochemical
T4 construct: the plasmid pHBA, which contains the entire coding region for E. coli BirA; made in house; host or cells: E. coli BL21(DE3), plasmid pHBA (pET-16b)
T4 sequence (P06709 whole entry): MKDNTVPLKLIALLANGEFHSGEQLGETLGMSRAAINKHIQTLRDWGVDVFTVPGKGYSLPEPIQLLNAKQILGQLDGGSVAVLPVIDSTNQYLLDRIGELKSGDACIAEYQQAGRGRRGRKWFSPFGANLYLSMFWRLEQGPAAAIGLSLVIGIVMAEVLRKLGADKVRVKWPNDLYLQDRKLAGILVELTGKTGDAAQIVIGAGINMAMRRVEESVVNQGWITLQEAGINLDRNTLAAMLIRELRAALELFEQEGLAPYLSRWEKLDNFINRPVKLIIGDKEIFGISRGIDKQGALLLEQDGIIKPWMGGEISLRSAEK
Description: as §4, §3

[5] = test system: Staphylococcus aureus; assay: Antibiotic activity against Staphylococcus aureus on solid media and in liquid culture; assay type: cell-based; conditions: L-agar, filter disc soaked in 100 μM, overnight 37° C.
Description: The antibacterial properties of Compound 2 were assessed against Staphylococcus aureus grown on both solid media (A-C) and in liquid culture (D). Log phase culture was plated onto L-agar and filter discs soaked in A) DMSO (vehicle control), B) 100 μM ampicillin or C) 100 μM compound #2. A single filter was placed in the centre of a bacterial plate before being placed at 37° C. overnight. The clear zone surrounding the disc in B & C represents sensitivity of S. aureus to the treatment. D) This sensitivity was quantitated in liquid culture by seeding 10^4 cells in a 96 well plate followed by overnight growth at 37° C. The growth of the culture was measured by absorbance at 600 nm.

[6] = target: C. albicans BPL (Candida albicans, UniProt A0A1D8PUA1); assay: biochemical; assay type: biochemical
C. albicans BPL, sequence (A0A1D8PUA1 entry or part of it): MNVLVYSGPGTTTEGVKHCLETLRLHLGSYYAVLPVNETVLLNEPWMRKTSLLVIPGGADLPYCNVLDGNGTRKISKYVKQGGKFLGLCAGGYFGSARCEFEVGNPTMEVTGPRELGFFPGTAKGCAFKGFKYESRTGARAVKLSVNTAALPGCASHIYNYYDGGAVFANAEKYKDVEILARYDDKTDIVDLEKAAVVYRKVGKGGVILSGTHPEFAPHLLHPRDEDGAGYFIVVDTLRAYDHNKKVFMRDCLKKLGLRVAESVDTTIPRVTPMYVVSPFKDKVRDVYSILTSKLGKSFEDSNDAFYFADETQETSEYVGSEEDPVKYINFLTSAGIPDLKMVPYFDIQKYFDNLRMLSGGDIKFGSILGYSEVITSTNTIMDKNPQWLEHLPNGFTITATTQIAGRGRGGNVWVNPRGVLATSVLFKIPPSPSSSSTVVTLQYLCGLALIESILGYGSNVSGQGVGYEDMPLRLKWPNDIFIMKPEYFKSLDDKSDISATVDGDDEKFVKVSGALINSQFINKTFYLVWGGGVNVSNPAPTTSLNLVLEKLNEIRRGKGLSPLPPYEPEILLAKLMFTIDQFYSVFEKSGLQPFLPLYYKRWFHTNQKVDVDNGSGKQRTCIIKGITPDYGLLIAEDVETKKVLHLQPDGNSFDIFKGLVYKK
Description: One hundred ng of biotin domain was coated onto each well of Griener Lumitrac 600 White 96-well plates (Stennick Scientific) with >95% of the peptide binding. Coating was performed overnight at 4° C. in 100 uL of Tris Buffered saline (TBS, pH 7.5). The sample was removed and wells blocked in 150 ul of a 1% BSA solution in TBS for 1 hr at 37° C. The blocking buffer was removed and wells washed five times in TBS buffer containing 0.1% Tween-20. Into each well 85 ul of the BPL reaction mix was added. The reaction for both C. albicans and human BPL are performed in 50 mM Tris-HCl pH 8.0, 100 uM ATP, 5.5 mM MgCl2, 0.1 mg/ml BSA, 10 uM biotin, 0.1 uM dithiothreitol.
Ten ul of either buffer alone or buffer containing inhibitor was added to the reaction mix and pre-equilibrated at 37° C. for 5 minutes. BPL reactions are initiated by the addition of 5 ul enzyme to a final concentration of 3.4 nM (1-5 nM). The reaction is allowed to proceed at 37° C. for 15 minutes at which point it is terminated by the addition of 5 ul 0.5 M EDTA (final concentration 25 mM). The reaction mix was discarded and wells washed five times in TBS-TD (TBS, 0.1% Tween-20 and 100 uM diethylenetriaminepentaacetic acid (DPTA)). The quantitative analysis of biotinylated protein formed in the reaction and coupled onto the well surface was determined using time resolved fluorescence. Fifty ul of Europium labelled streptavidin (Perkin-Elmer) solution, diluted to 0.1 ug/ml in TBS-TD, was added to each well. The plates were incubated at 37° C. for 1 hr before being washed five times in TBS-TD then three times in water. Fifty ul of DELFIA Enhancement solution (Perkin Elmer) was added and incubated for ten minutes at room temperature before quantitation. Quantitation was performed using a FLUOstar Galaxy plate reader (BMG Labtechnologies).
Each compound in the screening library was dissolved in 100% DMSO, added to the reactions to a final concentration of 10 μM or 50 μM and their effect on BPL activity measured. […] The inhibitory activity of the compounds was determined relative to the negative control reactions containing only DMSO.

[7] = test system: T5, hPC-108, biotin domain of human pyruvate carboxylase (C-terminal 108 amino acids), cleaved from GST
T5 sequence: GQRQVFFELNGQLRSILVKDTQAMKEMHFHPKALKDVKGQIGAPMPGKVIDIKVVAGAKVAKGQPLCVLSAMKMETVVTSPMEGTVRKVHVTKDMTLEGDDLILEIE

[8] = target: T3, human BPL; assay: Kinetic analysis of biotinylation of hPC-108, [3H]biotin incorporation assay; assay type: biochemical; conditions: varying concentrations of hPC-108; read-out: KM of human BPL for the biotin domain
Description: as §4

`C=CCC(Cc1cc(OC)cc(OC)c1)(C(=O)O)C(=O)O` [Compound 4, 2-allyl-2-(3,5-dimethoxybenzyl)malonic acid] showed an IC50 [1] greater than 50000 nM, an IC50 [2] of 2700 nM and an IC50 [3] greater than 50000 nM. It also gave an IC50 [4] of 0.9 nM.

With `CC1(C)S[C@@H]2[C@H](NC(=O)[C@H](N)c3ccccc3)C(=O)N2[C@H]1C(=O)O` [ampicillin] the “Sensitivity of S. aureus on solid media (filter disc)” value [5] was “clear zone”.

`Nc1ncnc2c1ncn2C1OC(COP(=O)(O)OCCCCCC2SCC3NC(=O)NC32)C(O)C1O` (stereo not drawn) [BtnOH-AMP, biotinol-adenylate] was tested, and the “Inhibition of the human BPL reaction (in words)” value [3] was “inhibitor”, the “Inhibition of the Candida BPL reaction (in words)” value [6] was “potent inhibitors” and the IC50 ([6]; concentration response curve, read-out: IC50, inhibition of Candida BPL activity) was 1000 ± 200 nM.

In the case of “recombinant human biotin protein ligase [Met1-Ala80]hBPL-His6”, the “KM (in vitro [3H]biotin incorporation assay, Michaelis-Menten fit)” value [7] is reported as 1.0 ± 0.2 µM.

In the case of `O=P(O)(O)OP(=O)(O)O` [pyrophosphate], the “Inhibition of the Candida BPL reaction (in words)” value [6] is reported as “potent inhibitors” and the “Inhibition of the Candida BPL reaction by pyrophosphate” value ([6]; in the range of 50 uM to 1 mM) is reported as “strongly inhibited”.

B1: hPC-108: polypeptide of the C-terminal 108 amino acids (biotin domain) of human pyruvate carboxylase, BPL substrate (protein)
chain: GQRQVFFELNGQLRSILVKDTQAMKEMHFHPKALKDVKGQIGAPMPGKVIDIKVVAGAKVAKGQPLCVLSAMKMETVVTSPMEGTVRKVHVTKDMTLEGDDLILEIE
Molecule B1 has a Km [8] of 1 ± 0.2 µM.
